Laboratory results taken from patent US20220202912A1, “Polypeptides in Preparation of Drugs for Treatment or Prevention of Rheumatoid Arthritis” (priority 2011, published 2022).
“And” between values parts separate entries of the source, which are not always exact repeats. Equal entries are not always repeated. Where no end group is shown, it is not given here.

Experiments:
IL-6 = assay: immunohistochemistry of IL-6 in spleen and thymus, AIA transgenic TNF-luc mice; type: in vivo, BALB/c transgenic TNF-luc mice; conditions: Adalimumab 8 mg/kg, mPEG-SC20k-HM-3 20 mg/kg
Description: (§1) Changes of expression of TNF-α and IL-6 are analyzed by HE staining and immunohistochemistry in the ankle joint, spleen and thymus of the mice. Observation and photographing are performed under the FOVs of ×200 and ×400 times respectively, 5 FOVs are taken randomly for each picture, and data statistics is performed.

TNF-α [1] = assay: in vivo imaging of TNF-α expression, AIA transgenic TNF-luc mice; design: species or system BALB/c transgenic TNF-luc mice; conditions: Adalimumab 8 mg/kg; for Fluorescence intensity (in vivo imaging): mPEG-SC20k-HM-3 20 mg/kg sc; for in vivo fluorescence densities: mPEG-SC20k-HM-3 20 mg/kg
Description: […] After the mice are lightly anesthetized with ether, the mice are fixed within 5-20 min and put into an in vivo imager, the imager is covered with an instrument lid, on-fluro and om-photo names in the desktop imaging interface of the computer are clicked, and the expose button is clicked to complete the fluorescence and white light photos of mice in vivo imaging.
(§2) (1) Imaging principle: Fluorescein substrate is injected intraperitoneally, and binds to luciferase carried on TNF-α protein to catalyze luminescence. Through the Luciferase fluorescent reporter group on TNF, the change of the fluorescence area in mice is observed, and the expression of TNF-α is evaluated, so as to evaluate the impact of mPEG-SC20k-HM-3 on the expression of TNF-α.
(§3) (2) Operation steps: Start the Carestreama in vivo imager, open the MI software, click the Capture button, and set photographing conditions. In the on-flour fluorescence mode, set the parameters X Binning. 2 pixels, Y Binning. 2 pixels; Illumination Source: Multi-wavelength; f-stop: 2.50; field of view (FOV) (mm): 120; focal plane (mm): Tray. Excitation filter: 430 nm, emission filter: 535 nm; exposure time: 30s. Click the Expose button to photograph fluorescence. Under the om-photo name, set the parameters X Binning. 0 pixels, Y Binning. 0 pixels; Illumination Source: None; f-stop: 2.50; FOV (mm): 120; focal plane (mm): Tray. Excitation filter: 0 nm, emission filter: 0 nm; exposure time: 0.175 s. Click the Expose button to photograph white light.
(§4) (3) Image processing and output: Analyze and adjust photos of fluorescence function imaging and white light structure imaging to the best, and the FOV is consistent. Click Window→Tie, Display→Invert, Image Display→overlay→Transparency for image stacking. In the image output process, in a navigation panel, click Annotation→Width/Heigh→Scale Analysis Image for setting, click Add Annotation Bar for adding a title, click Add Intensity Scale for adding a ruler, and set Horizontal, Size, Style, Number of Significant Dig, and Horizontal/Vertical Length. Output a picture in Tiff format.

TNF-α [2] = assay: immunohistochemistry of TNF-α in ankle joints, AIA transgenic TNF-luc mice; type: in vivo, BALB/c transgenic TNF-luc mice; conditions: Adalimumab 8 mg/kg, mPEG-SC20k-HM-3 20 mg/kg
Description: as §1

TNF-α [3] = assay: in vivo imaging of TNF-α expression, carrageenan-induced TNF-luc mice; design: species or system BALB/c transgenic TNF-luc mice; conditions: Adalimumab 8 mg/kg, mPEG-SC20k-HM-3 20 mg/kg sc
Description: At 8 time points, hour 0, hour 2, hour 4, hour 8, hour 12, hour 24, hour 48 and hour 72 after modeling, fluorescein is injected intraperitoneally into each group of mice. After the mice are lightly anesthetized with ether, the mice are fixed within 5-20 min and put into an in vivo imager, the imager is covered with an instrument lid, on-fluro and om-photo names in the desktop imaging interface of the computer are clicked, and the expose button is clicked to complete the fluorescence and white light photos of mice in vivo imaging. The specific imaging principle, operation steps, image processing and output are the same as those in the previous embodiment.
In vivo imaging results of mice are processed with Carestream Molecular Imaging Software 5.3, and the luminous area is used as the determination of results. The fluorescence areas of the groups after optimization are compared.
as §2, §3, §4

human U937 cells = assay: human whole genome array of U937-derived macrophages; type: cell-based; conditions: 13.5 μmol/L, 48 h
Description: 1.1.1 U937 cells are cultured in a 6-well plate at 3×10^6 cells/mL per well overnight, and PMA (25 ng/mL) is added on the next day for induction for 48 h. After the cells adhere, cultured supernatant is pipetted away. The cells are treated with mPEG-SC20k-HM-3 (test group) or a medium (negative control group) at 13.5 μmol/L at 37° C. for 48 h.
1.1.2 1×10^6 cells are taken from each of two groups of samples, and the solution has […], and is centrifuged for 5 min. The supernatant is removed. 1 mL of TRIZOL lysis solution is added and mixed uniformly, and the solution stands at room temperature for 5 min.
1.2 DNase I digest the RNA sample to remove any genomic DNA that may be contained therein. […]
1.8.2 Sample adding: An membrane on the PCR Array is opened, 10 μL of mixture is added to each well corresponding to the PCR Array, and a lid is closed to seal the PCR Array; after a real-time quantitative PCR program is set, the PCR Array is placed on the real-time quantitative PCR instrument for PCR reaction, and the prepared PCR Array is placed on ice before the PCR program is set. […]
1.9.3 2^−ΔΔCt values of the test group and the control group are calculated to analyze the difference in expression of the corresponding genes between the test group and the control group. […]

Row | Substance | immunohistochemical score of IL-6 in spleen (IL-6) | immunohistochemical score of IL-6 in thymus (IL-6) | Fluorescence intensity (in vivo imaging) (TNF-α [1]; 17 d (treatment starts)) | Fluorescence intensity (in vivo imaging) (TNF-α [1]; 32 d) | in vivo fluorescence densities (TNF-α [1]; day 17, as printed in text) | in vivo fluorescence densities (TNF-α [1]; day 32, as printed in text) | immunohistochemical score of TNF-α in ankle joint cavity (TNF-α [2]) | Fluorescence intensity (in vivo imaging) (TNF-α [3]; 0 h) | Fluorescence intensity (in vivo imaging) (TNF-α [3]; 2 h) | Fluorescence intensity (in vivo imaging) (TNF-α [3]; 4 h) | Fluorescence intensity (in vivo imaging) (TNF-α [3]; 8 h) | Fluorescence intensity (in vivo imaging) (TNF-α [3]; 12 h) | Fluorescence intensity (in vivo imaging) (TNF-α [3]; 24 h) | Fluorescence intensity (in vivo imaging) (TNF-α [3]; 48 h) | Fluorescence intensity (in vivo imaging) (TNF-α [3]; 72 h) | number of related factors down-regulated at the mRNA level (human U937 cells) | number of related factors up-regulated at the mRNA level (human U937 cells)
1 | Adalimumab [reference compound] | 0.013±0.010 | 0.039±0.041 | 46.746 ± 3.457 ×10^5 | 26.446 ± 2.659 ×10^5 | 46.75±3.46 10^6 | 26.45±2.66 10^6 | 0.246±0.110 | 18.048 ± 4.770 ×10^5 | 18.480 ± 4.887 ×10^5 | 20.209 ± 2.261 ×10^5 | 25.70±2.67 ×10^5 and 25.703 ± 2.668 ×10^5 | 22.40±5.06 ×10^5 and 22.396 ± 5.065 ×10^5 | 13.89±8.53 ×10^5 and 13.891 ± 0.853 ×10^5 | 14.76±3.58 ×10^5 and 14.765 ± 3.580 ×10^5 | 19.87±3.92 ×10^5 and 19.868 ± 3.924 ×10^5 | – | –
2 | mPEG-SC20k-Ile-Val-Arg-Arg-Ala-Asp-Arg-Ala-Ala-Val-Pro-Gly-Gly-Gly-Gly-Arg-Gly-Asp ({mPEG‑SC 20k}-IVRRADRAAVPGGGGRGD) [polypeptide III, No. 3] | 0.006±0.002 | 0.068±0.033 | 41.604 ± 6.080 ×10^5 | 31.956 ± 1.170 ×10^5 | 41.6±1.68 10^6 | 31.96±1.17 10^6 | 0.149±0.047 | 10.851 ± 3.014 ×10^5 | 13.880 ± 5.266 ×10^5 | 11.926 ± 2.119 ×10^5 | 19.37±3.41 ×10^5 and 19.367 ± 3.408 ×10^5 | 18.65±9.09 ×10^5 and 18.653 ± 9.093 ×10^5 | 12.65±2.39 ×10^5 and 12.654 ± 2.390 ×10^5 | 14.37±6.24 ×10^5 and 14.037 ± 6.238 ×10^5 | 13.40±1.17 ×10^5 and 13.402 ± 1.171 ×10^5 | 538 | 499
